In patent US20260015333A1, “COMPOUNDS AND METHODS FOR INHIBITION OF THE EVOLUTION OF […]” (priority 2022, published 2026):

Key:
[1] = target: T1, Mfd (Salmonella typhimurium, UniProt Q8ZQ01); test: Binding affinity analysis by microscale thermophoresis; parameters: species or system S. typhimurium; details: labeled Mfd 50 nM
Experimental: FIGS. 2A-2D depict how ARM-1 affects Mfd's biochemical activity. FIG. 2A depicts how the kd of ARM-1 was determined using microscale thermophoresis. Data shown represent a minimum of three independent experiments. FIG. 2B depicts a NADH-coupled ATPase assay. ATP hydrolysis by Mfd was coupled to NADH oxidation. Phosphoenolpyruvate is converted to pyruvate by pyruvate kinase, transferring a phosphate group onto ADP, which is only present in the reaction following ATP hydrolysis by Mfd. Pyruvate is then converted to lactate by lactate dehydrogenase, oxidizing NADH to NAD^+. Absorbance at 340 nm by NADH is used to monitor the reaction. Data shown represent a minimum of 3 biological replicates. FIG. 2C depicts a transcription roadblock assay. A P32-labled 176 bp PCR fragment was incubated with E. coli RNAP along with saturating concentrations of ATP, GTP, and UTP. 100 nM S. typhimurium ST19 Mfd preincubated with indicated concentrations of ARM-1 was added and the reaction allowed to proceed for 6 minutes. DNA products were then resolved on a polyacrylamide gel and analyzed by phosphorimaging. […] Quantification of these gels is shown below each lane. […]
Microscale thermophoresis was performed on a Monolith (NanoTemper). […] MST experiments were performed under default settings apart from fluorescence intensity set to 100%. […]

[2] = target: T1, Mfd; test: Translocase assay (in vivo luminescence reporter system); assay type: cell-based, S. typhimurium
Text: FIGS. 1A-1C depict an in vivo high throughput screen identifing lead compound ARM-1. FIG. 1A is a schematic of in vivo screen design. In the upper panel, when Mfd is present, RNAP complexes stalled at the lacI-bound operator sequence are quickly removed, resulting in little to no transcription of the lux operon and low luminescence output. In the lower panel, when Mfd is either absent or inhibited, RNAP complexes stalled at the operator are not removed and are able to proceed during temporary dissociation of LacI, resulting in relatively high levels of luminescent output. FIG. 1B depicts the structure of the compound, ARM-1. […] Relative luminescence is normalized to no compound, solvent control, and 0.5% DMSO. *p<0.05 ***p<0.001.
In order to determine if Mfd's activity and/or RNAP termination function could be inactivated through the use of a small molecule, a high-throughput in vivo screen of roughly 250,000 compounds was conducted. […] The reporter system consists of one plasmid with a lac operator (lacO) encoded directly upstream of the lux operon which expresses proteins that produce luciferase, leading to easily detectable luminescence. […] The LacI protein which binds to lacO is a barrier to transcription; RNAP is unable to readily pass the bound protein and therefore, the transcription machinery stalls. […]

[3] = system: RpoB association with rDNA; test: ChIP-qPCR of RpoB enrichment at rDNA; assay type: cell-based, S. typhimurium ST19; details: treated 2 generations

T1 sequence (Q8ZQ01 entry or part of it): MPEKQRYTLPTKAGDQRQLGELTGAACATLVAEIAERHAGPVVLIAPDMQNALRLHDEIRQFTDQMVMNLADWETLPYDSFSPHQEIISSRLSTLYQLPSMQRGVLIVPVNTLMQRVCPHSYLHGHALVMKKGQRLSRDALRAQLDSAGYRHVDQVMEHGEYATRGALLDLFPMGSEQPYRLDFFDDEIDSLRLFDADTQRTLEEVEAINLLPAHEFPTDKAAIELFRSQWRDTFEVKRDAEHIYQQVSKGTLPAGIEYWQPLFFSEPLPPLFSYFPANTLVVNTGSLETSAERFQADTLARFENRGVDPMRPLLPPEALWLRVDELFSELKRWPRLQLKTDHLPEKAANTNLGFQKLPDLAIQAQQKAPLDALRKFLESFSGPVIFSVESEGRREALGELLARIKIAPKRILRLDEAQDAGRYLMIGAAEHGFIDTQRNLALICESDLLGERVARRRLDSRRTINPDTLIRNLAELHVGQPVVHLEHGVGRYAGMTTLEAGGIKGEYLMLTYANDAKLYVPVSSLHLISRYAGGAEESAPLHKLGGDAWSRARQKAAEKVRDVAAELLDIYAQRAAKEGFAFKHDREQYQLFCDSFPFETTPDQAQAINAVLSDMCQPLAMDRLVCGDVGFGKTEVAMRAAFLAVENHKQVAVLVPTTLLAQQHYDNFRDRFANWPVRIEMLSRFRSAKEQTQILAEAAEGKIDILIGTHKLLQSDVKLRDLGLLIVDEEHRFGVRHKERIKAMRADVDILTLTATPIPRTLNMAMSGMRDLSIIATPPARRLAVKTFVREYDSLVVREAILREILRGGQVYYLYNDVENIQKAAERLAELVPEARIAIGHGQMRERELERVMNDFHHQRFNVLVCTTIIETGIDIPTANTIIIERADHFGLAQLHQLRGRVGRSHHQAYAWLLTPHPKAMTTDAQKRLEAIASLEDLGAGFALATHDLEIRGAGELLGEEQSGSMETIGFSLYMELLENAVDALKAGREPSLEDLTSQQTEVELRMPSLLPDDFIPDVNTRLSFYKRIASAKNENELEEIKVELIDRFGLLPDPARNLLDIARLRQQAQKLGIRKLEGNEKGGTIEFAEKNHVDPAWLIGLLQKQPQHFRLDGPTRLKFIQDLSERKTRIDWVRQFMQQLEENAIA

For `Cc1cc(Br)ccc1-c1ccc(CNCCCN(C)C)o1` [ARM-1, N^1-((5-(4-bromo-2-methylphenyl)furan-2-yl)methyl)-N^3,N^3-dimethylpropane-1,3-diamine], the Kd [1] was 4.25 µM, the “effect on luminescence in cells lacking Mfd” value [2] was “no effect” and the “RpoB association with rDNA” value ([3]; 5 mM ARM-1, WT cells) was “little change”. The “RpoB association with rDNA” value ([3]; 10 mM ARM-1, WT cells) was “dramatic decrease”.
